The text below walks through data of US8143373B2, “Carbohydrate-containing pan cancer marker” (Vancouver Biotech Ltd., priority 2007, dated 2012).

Several values for one entry are separate records, joined by “and”; a condition that tells them apart may be missing. Equal entries are not always repeated. Where only a bound is given, the exact number is not on record here.

Data set [1] concerns OC-3-VGH ovarian cancer cells tumors. Put plainly: Tumor growth in nude mice implanted subcutaneously with cancer cells. The format is in vivo. The note with it: for Percent (average tumor weight, negative control = 100) / Average of Tumor Weight: n=4; for Body Weight (individual mouse) / Tumor Weight (individual mouse): mice #1-4. The protocol: Groups of four nude mice were implanted subcutaneously with 2×10^6 cells in 0.2 ml per mouse at sites near the breast for a growth period of 2-3 weeks. Treatments were performed after visible apparent growth of tumors. The radioactive labeling of the mAb was at a specific radioactivity of 12.5 μCi/mg.
The mice were sacrificed on day 16 after treating with antibody, and the size of tumors in each mouse was determined by weight together with the body weight.

Data set [2] concerns CA215 antigen on OC-3-VGH cancer cells. Put plainly: Direct binding enzyme immunoassay of RP215-HRP to OC-3-VGH cancer cell-coated wells (NaIO4 treatment, goat anti-human IgG competition). The note with it: for Optical Density at 450 nm / percent maximum binding: RP215-HRP 10 ug/ml + normal mouse IgG 10 ug/ml. The protocol: PBS-washed OC-3-VGH cancer cells (conc. 1×10^6 cells/ml) were incubated with 100 mM NaIO4 for 30 minutes, the cells were washed with PBS containing 0.5% BSA, and then dried on microwells at 1×10^4 cells/well. The cell-coated microwells were then blocked with 0.5% BSA in PBS and direct binding enzyme immunoassays using RP215 labeled with horseradish peroxidase (RP215-HRP) were performed at 37° C. for one hour followed by extensive washes and color development with TMB substrate. For comparison wells coated with cancer cells without NaIO4 treatments served as control.

For data set [3], the system named is CA215 present in OC-3-VGH cancer cells. Put plainly: Secondary two-step ELISA, direct binding of anti-immunoglobulin antibodies to CA215 in OC-3-VGH cancer cells. Set-up: species or system human. The note with it: 1.125 ug/ml primary antibody; ODn = corresponding normal mouse IgG concentration. The protocol: In this case the experiment was conducted as a secondary two-step ELISA with primary antibodies incubated with sample overnight at room temperature, followed by goat antibody Anti-Mouse IgG-ALP, for 1 hour at 37° C. ODs is the OD value of sample and ODn is the OD value of corresponding normal mouse IgG concentration.

The subject of data set [4] is OC-3-VGH ovarian cancer cells. Put plainly: Growth of OC-3-VGH cell cultures in vitro. The settings on record: addition to cell cultures of OC-3-VGH ovarian cancer cells. The format is cell-based, human. The protocol:
Cell culture growth was also not inhibited either by human IgG or goat anti-human IgG in vitro up to a concentration of 200 μg/ml in the cell culture.

Another data set deals with CA215. Put plainly: Sandwich EIA with coated RP215 forms, OC-3-VGH shed medium and HRP-labeled RP215. The format is binding, human. The settings on record: for Relative Signal Intensity in Sandwich EIA: antibody coated at 5 μg/ml, 450 nm. The protocol:
Each was coated separately at 5 μg/ml overnight in microwells. The microwells were treated with concentrated cell culture shed medium of OC-3-VGH cells (to supply CA215) and then with HRP-labeled RP215 as a detection antibody. The detection antibody was incubated with each well for 60 min. at 37° C. After 30 min, TMB substrate was added for 20 min. of color development and, after stopping the reaction, the intensity determined at 450 nm in an ELISA reader. In some cases, 10 μg/ml human IgG was added to the wells, but this had no evident effect on the signal intensity.

The subject of another data set is Goat Anti-mouse IgG. Put plainly: Binding of well-coated antibodies to detecting antibody. The settings on record: for Relative Intensity: detecting antibody Goat Anti-mouse IgG, RP215 adjusted to 100%. An excerpt: In row 1, the results were normalized to 100% for the interaction between RP215 and goat anti-mouse IgG. As shown in the first row, goat anti-mouse IgG bound comparatively poorly to the humanized or chimeric human forms.

Another data set deals with Goat Anti-human IgG. Described as above. The settings on record: for Relative Intensity: detecting antibody Goat Anti-human IgG, hRP215 adjusted to 100%. An excerpt: In row 2, when goat anti-human IgG is used as a detector, and humanized RP215 was set at 100%, decreased binding was shown for human IgG, and very reduced binding for the chimeric or murine RP215.
The test system of the next data set is Goat Anti-human IgFc. The data set is described as above.
The test system of the next data set is Goat Anti-human IgFab. The data set is described as above.
Setting [5] is: 60 mg/Kg, sacrificed day 16 after treating.
Setting [6] is: high dose 10 mg/Kg (I131-labeled: + 125 μCi), day 16, 10 mg/kg, in g (unit assumed).
Setting [7] is: low dose 2 mg/Kg (I131-labeled: + 25 μCi), day 16, 2 mg/kg, in g (unit assumed).

As for `O=P1(N(CCCl)CCCl)NCCCO1` (centres unmarked) [Cyclophosphonamide, reference compound], the “Percent (average tumor weight, negative control = 100)” value in data set [1] (60 mg/Kg, day 16) worked out at 73.2%. Moreover, in data set [1] (60 mg/Kg, day 16, in g (unit assumed)), the “Average of Tumor Weight” value worked out at 0.09575. Moreover, in [1] (setting [5]), the “Body Weight (individual mouse)” value is 21.18 (2×) and 21.42 and 23.37; the “Tumor Weight (individual mouse)” value is 0.098 (2×) and 0.096 and 0.091.

As to “RP215-HRP: RP215 labeled with horseradish peroxidase”, the “binding between RP215-HRP and cancer cell-coated wells treated with periodate (in words)” value in [2] (100 mM NaIO4 for 30 minutes vs untreated cells) is recorded as “drastically reduced”. Moreover, in data set [2] (with NaIO4 treatment), the “Optical Density at 450 nm” value was found to be 0.797 and the percent maximum binding amounted to 37%. In addition, in data set [2] (without NaIO4 treatment), the “Optical Density at 450 nm” value came to 2.153 and the percent maximum binding was determined as 100%.

As to “RP215: monoclonal antibody (mouse IgG) to tumor-associated antigen CA215; hybridoma deposited as ATCC HB10095”, in [3], the ODs405/ODn405 is 11.6. In addition, in [4], the “effect on growth of cell cultures (in words)” value was “no effect on growth”. Moreover, the “Body Weight (individual mouse)” value was 21.43 and 23.05 and 22.15 and 23.56 in [1] (setting [6]); 21.76 and 20.57 and 21.98 and 22.64 in [1] (setting [7]). The “Tumor Weight (individual mouse)” value in data set [1] (setting [6]) is 0.088 and 0.077 and 0.095 and 0.086; in data set [1] (setting [7]) it was 0.103 and 0.122 and 0.080 and 0.104. The “Percent (average tumor weight, negative control = 100)” value in data set [1] (high dose 10 mg/Kg (I131-labeled: + 125 μCi), day 16) was determined as 66.2%; in [1] (low dose 2 mg/Kg (I131-labeled: + 25 μCi), day 16) it was 78.2%. In addition, the “Average of Tumor Weight” value in [1] (high dose 10 mg/Kg (I131-labeled: + 125 μCi), day 16, in g (unit assumed)) was found to be 0.0865; in data set [1] (low dose 2 mg/Kg (I131-labeled: + 25 μCi), day 16, in g (unit assumed)), 0.1022. Also, the “tumor growth in vivo (in words)” value in [1] (nude mice) is “successful in inhibiting tumor growth in vivo”. For the same molecule, the “Relative Signal Intensity in Sandwich EIA” value with CA215 (10 μg/ml Human IgG) and with CA215 (No Human IgG) was 100% throughout. In addition, in the data set on Goat Anti-mouse IgG (antibody-coated microwells), the “binding to goat anti-mouse IgG (in words)” value is given as “strong binding”. The “Relative Intensity” value in the data set on Goat Anti-mouse IgG was 100%; in the data set on Goat Anti-human IgG, less than 0.5%; with Goat Anti-human IgFc, less than 0.5%; in the data set with Goat Anti-human IgFab, less than 1%. Also, the “binding to goat anti-human IgG (in words)” value with Goat Anti-human IgG (antibody-coated microwells, alkaline phosphatase-labeled goat anti-human IgG) is “no binding”.

As to “chRP215: chimeric RP215 mAb with human constant regions and the murine variable regions of RP215”, the entries for the “Relative Signal Intensity in Sandwich EIA” value in the data set with CA215 (10 μg/ml Human IgG) and with CA215 (No Human IgG) were 15.4% and 14.5%, respectively. In addition, the “binding affinity to CA215 compared with RP215 (in words)” value in the data set on CA215 (sandwich EIA) is recorded as “lower binding affinity”. The “Relative Intensity” value in the data set on Goat Anti-mouse IgG is on record as roughly 7%; in the data set with Goat Anti-human IgG it was roughly 10%; with Goat Anti-human IgFc, 45%; in the data set with Goat Anti-human IgFab, 10%.
